Measured values as given in PMC3136114 (2011).

System: c-Myc duplex (18 bp, d(AGGGTGGGG)2:d(CCCCACCCT)2) (DNA, duplex) AGGGTGGGGAGGGTGGGG/CCCCACCCTCCCCACCCT
Experiment: UV absorption titration, Scatchard
Details: 137 mM Na+ (NaCl), 5.4 mM K+ (KCl), 1.3 mM Ca2+, 1 mM Mg2+; Hanks' buffer, pH 7.2, 20 °C; single type of site; per site

With `O=C1NC(=O)c2c1c1c3ccccc3[nH]c1c1c2c2ccccc2n1[C@@H]1OC[C@H](O)[C@H](O)[C@H]1O` as the compound, how does the K1 read?
Its K1 is 0.8 ± 0.1 × 10^6 M^-1.
